Test results from PubChem BioAssay AID1259407 (Chemical Carcinogenesis Research Information System (CCRIS), 2018).
“Also recorded” adds a separate entry of the source. Active and inactive are the calls of the source. No rule for the calls is given here.

System: CCRIS mutagenicity, Ames/micronucleus/aberration tests
Assay: CCRIS mutagenicity studies
[1] = Test System: AMES SALMONELLA TYPHIMURIUM, Strain/Indicator: TA98, Metabolic Activation: NONE, Method: STANDARD PLATE
[2] = Test System: AMES SALMONELLA TYPHIMURIUM, Strain/Indicator: TA98, Metabolic Activation: RAT, LIVER, S-9, AROCLOR 1254, Method: STANDARD PLATE
[3] = Test System: AMES SALMONELLA TYPHIMURIUM, Strain/Indicator: TA100, Metabolic Activation: NONE, Method: STANDARD PLATE
[4] = Test System: AMES SALMONELLA TYPHIMURIUM, Strain/Indicator: TA100, Metabolic Activation: RAT, LIVER, S-9, AROCLOR 1254, Method: STANDARD PLATE
[5] = Test System: AMES SALMONELLA TYPHIMURIUM, Strain/Indicator: TA104, Metabolic Activation: NONE, Method: STANDARD PLATE

Nc1ccc([N+](=O)[O-])cc1N
mutagenic call (End Point: IN VITRO CHROMOSOMAL ABERRATIONS, Test System: CHL CELLS, Metabolic Activation: RAT, LIVER, S-9, SODIUM PHENOBARBITAL AND 5,6-BENZOFLAVONE): inactive; negative; authors report equivocal results for structural changes at 0.75 , 1.5
mutagenic call (Test System: AMES SALMONELLA TYPHIMURIUM, Strain/Indicator: TA98(NR), Metabolic Activation: NONE, Method: PREINCUBATION): active; positive
mutagenic call (Test System: AMES SALMONELLA TYPHIMURIUM, Strain/Indicator: TA98(NR), Metabolic Activation: RAT, LIVER, S-9, AROCLOR 1254, Method: PREINCUBATION): active; positive
mutagenic call (Test System: AMES SALMONELLA TYPHIMURIUM, Strain/Indicator: TA98, Metabolic Activation: NONE): active; positive
mutagenic call (Test System: AMES SALMONELLA TYPHIMURIUM, Strain/Indicator: TA98, Metabolic Activation: NONE, Method: PREINCUBATION): active; positive
mutagenic call [1]: active; positive
mutagenic call (Test System: AMES SALMONELLA TYPHIMURIUM, Strain/Indicator: TA98, Metabolic Activation: PEA APICAL BUD S-9, Method: PREINCUBATION): active; positive
mutagenic call (Test System: AMES SALMONELLA TYPHIMURIUM, Strain/Indicator: TA98, Metabolic Activation: PEA APICAL BUD S-9, Method: STANDARD PLATE): active; positive
mutagenic call (Test System: AMES SALMONELLA TYPHIMURIUM, Strain/Indicator: TA98, Metabolic Activation: RAT, LIVER, S-9, AROCLOR 1254): active; positive
mutagenic call (Test System: AMES SALMONELLA TYPHIMURIUM, Strain/Indicator: TA98, Metabolic Activation: RAT, LIVER, S-9, AROCLOR 1254, Method: PREINCUBATION): active; positive
mutagenic call [2]: active; positive
mutagenic call (Test System: AMES SALMONELLA TYPHIMURIUM, Strain/Indicator: TA98, Metabolic Activation: RAT, LIVER, S-9, PHENOBARBITAL AND BETA-NAPHTHOFLAVONE, Method: PREINCUBATION): active; positive
mutagenic call (Test System: AMES SALMONELLA TYPHIMURIUM, Strain/Indicator: TA98, Metabolic Activation: RAT, LIVER, S-9, SODIUM PHENOBARBITAL AND 5,6-BENZOFLAVONE, Method: PREINCUBATION): active; positive
mutagenic call (Test System: AMES SALMONELLA TYPHIMURIUM, Strain/Indicator: TA98, Metabolic Activation: ZEA MAYS, S-2, Method: STANDARD PLATE): active; positive
mutagenic call (Test System: AMES SALMONELLA TYPHIMURIUM, Strain/Indicator: TA100(NR), Metabolic Activation: NONE, Method: PREINCUBATION): active; positive
mutagenic call (Test System: AMES SALMONELLA TYPHIMURIUM, Strain/Indicator: TA100(NR), Metabolic Activation: RAT, LIVER, S-9, AROCLOR 1254, Method: PREINCUBATION): active; positive
mutagenic call (Test System: AMES SALMONELLA TYPHIMURIUM, Strain/Indicator: TA100, Metabolic Activation: NONE, Method: PREINCUBATION): active; positive
mutagenic call [3]: active; positive
mutagenic call (Test System: AMES SALMONELLA TYPHIMURIUM, Strain/Indicator: TA100, Metabolic Activation: PEA APICAL BUD S-9, Method: PREINCUBATION): active; positive
mutagenic call (Test System: AMES SALMONELLA TYPHIMURIUM, Strain/Indicator: TA100, Metabolic Activation: PEA APICAL BUD S-9, Method: STANDARD PLATE): active; positive
mutagenic call (Test System: AMES SALMONELLA TYPHIMURIUM, Strain/Indicator: TA100, Metabolic Activation: RAT, LIVER, S-9, AROCLOR 1254, Method: PREINCUBATION): active; positive
mutagenic call [4]: active; positive
mutagenic call (Test System: AMES SALMONELLA TYPHIMURIUM, Strain/Indicator: TA100, Metabolic Activation: RAT, LIVER, S-9, PHENOBARBITAL AND BETA-NAPHTHOFLAVONE, Method: PREINCUBATION): active; positive
mutagenic call (Test System: AMES SALMONELLA TYPHIMURIUM, Strain/Indicator: TA100, Metabolic Activation: ZEA MAYS, S-2, Method: STANDARD PLATE): active; positive
mutagenic call [5]: active; positive
mutagenic call (Test System: AMES SALMONELLA TYPHIMURIUM, Strain/Indicator: TA4001, Metabolic Activation: NONE, Method: STANDARD PLATE): inactive; negative
mutagenic call (Test System: AMES SALMONELLA TYPHIMURIUM, Strain/Indicator: TA4006, Metabolic Activation: NONE, Method: STANDARD PLATE): active; positive
mutagenic call (Test System: AMES SALMONELLA TYPHIMURIUM, Strain/Indicator: TA7001, Metabolic Activation: NONE, Method: STANDARD PLATE): inactive; negative
mutagenic call (Test System: AMES SALMONELLA TYPHIMURIUM, Strain/Indicator: TA7001, Metabolic Activation: RAT LIVER S-9, AROCLOR 1254, Method: STANDARD PLATE): inactive; negative
mutagenic call (Test System: AMES SALMONELLA TYPHIMURIUM, Strain/Indicator: TA7002, Metabolic Activation: NONE, Method: STANDARD PLATE): active; positive
mutagenic call (Test System: AMES SALMONELLA TYPHIMURIUM, Strain/Indicator: TA7002, Metabolic Activation: RAT LIVER S-9, AROCLOR 1254, Method: STANDARD PLATE): active; positive
mutagenic call (Test System: AMES SALMONELLA TYPHIMURIUM, Strain/Indicator: TA7003, Metabolic Activation: NONE, Method: STANDARD PLATE): inactive; negative
mutagenic call (Test System: AMES SALMONELLA TYPHIMURIUM, Strain/Indicator: TA7004, Metabolic Activation: NONE, Method: STANDARD PLATE): active; positive
mutagenic call (Test System: AMES SALMONELLA TYPHIMURIUM, Strain/Indicator: TA7004, Metabolic Activation: RAT LIVER S-9, AROCLOR 1254, Method: STANDARD PLATE): active; positive
mutagenic call (Test System: AMES SALMONELLA TYPHIMURIUM, Strain/Indicator: TA7005, Metabolic Activation: NONE, Method: STANDARD PLATE): active; positive
mutagenic call (Test System: AMES SALMONELLA TYPHIMURIUM, Strain/Indicator: TA7005, Metabolic Activation: RAT LIVER S-9, AROCLOR 1254, Method: STANDARD PLATE): active; positive
mutagenic call (Test System: Ames Salmonella typhimurium, Strain/Indicator: TA97a, Metabolic Activation: None, Method: Preincubation): active; positive (decrease in mutagenicity when 0.99-15.90 mg/plate of chloroform extrac
mutagenic call (Test System: Ames Salmonella typhimurium, Strain/Indicator: TA98, Metabolic Activation: None, Method: Preincubation): active; positive (decrease in mutagenicity when 0.99-15.90 mg/plate of chloroform extrac; also recorded: active; positive (dose related decrease in mutagenicity when 1.82-21.90 mg/plate of meth
mutagenic call (Test System: CHINESE HAMSTER OVARY, Strain/Indicator: CHO-K1-BH4 (HGPRT)/6-THIOGUANINE, Metabolic Activation: NONE): inactive; negative
mutagenic call (Test System: CHINESE HAMSTER OVARY, Strain/Indicator: CHO-K1-BH4 (HGPRT)/6-THIOGUANINE, Metabolic Activation: S-9): inactive; negative
mutagenic call (Test System: E. COLI, Strain/Indicator: WP2 UVRA, Metabolic Activation: HAMSTER, LIVER, S-9, AROCLOR 1254, Method: STANDARD PLATE): inactive; negative
mutagenic call (Test System: E. COLI, Strain/Indicator: WP2 UVRA, Metabolic Activation: HAMSTER, LIVER, S-9, Method: STANDARD PLATE): inactive; negative
mutagenic call (Test System: E. COLI, Strain/Indicator: WP2 UVRA, Metabolic Activation: MOUSE, LIVER, S-9, AROCLOR 1254, Method: STANDARD PLATE): inactive; negative
mutagenic call (Test System: E. COLI, Strain/Indicator: WP2 UVRA, Metabolic Activation: MOUSE, LIVER, S-9, Method: STANDARD PLATE): inactive; negative
mutagenic call (Test System: E. COLI, Strain/Indicator: WP2 UVRA, Metabolic Activation: NONE, Method: STANDARD PLATE): inactive; negative
mutagenic call (Test System: E. COLI, Strain/Indicator: WP2 UVRA, Metabolic Activation: RAT, LIVER, S-9, AROCLOR 1254, Method: STANDARD PLATE): inactive; negative
mutagenic call (Test System: E. COLI, Strain/Indicator: WP2 UVRA, Metabolic Activation: RAT, LIVER, S-9, Method: STANDARD PLATE): inactive; negative
mutagenic call (Test System: MOUSE LYMPHOMA, Strain/Indicator: L5178Y (TK+/TK-), Metabolic Activation: NONE, Method: SUSPENSION/PLATE): active; positive
mutagenic call (Test System: MOUSE LYMPHOMA, Strain/Indicator: L5178Y (TK+/TK-), Metabolic Activation: RAT, LIVER, S-9, AROCLOR 1254, Method: SUSPENSION/PLATE): active; positive
mutagenic call (Test System: UDS RAT HEPATOCYTES, Strain/Indicator: THY INCORP, Metabolic Activation: NONE, Method: AUTORADIOGRAPHY (SERUM-FREE MEDIA)): active; positive

ClC(Cl)(Cl)Br
mutagenic call (Test System: AMES SALMONELLA TYPHIMURIUM, Strain/Indicator: TA97, Metabolic Activation: NONE, Method: STANDARD PLATE): active; positive
mutagenic call (Test System: AMES SALMONELLA TYPHIMURIUM, Strain/Indicator: TA97, Metabolic Activation: RAT, LIVER, S-9, AROCLOR 1254, Method: STANDARD PLATE): active; positive
mutagenic call [1]: active; positive
mutagenic call [2]: inactive; negative
mutagenic call [3]: inactive; negative
mutagenic call [4]: inactive; negative
mutagenic call [5]: active; positive
mutagenic call (Test System: AMES SALMONELLA TYPHIMURIUM, Strain/Indicator: TA104, Metabolic Activation: RAT, LIVER, S-9, AROCLOR 1254, Method: STANDARD PLATE): active; positive
